Test results taken from patent publication US20250188092A1, “RIFAMYCIN ANALOGS” (THE REGENTS OF THE UNIVERSITY OF MICHIGAN, priority 2021, published 2025).
Converted amounts (≈) assume the structure as drawn. Like-named read-outs stand apart in the source and are kept apart here.

Legend:
[1] = test system: non-replicating cultures of M. tuberculosis H37Rv transformed with lux ABCDE; assay: microbe, parasite or virus in culture; type: cell-based, Mycobacterium tuberculosis; settings: for MIC90: Mycobacterium tuberculosis, H37RV, ≥90% reduction in luminescence, read-out: MIC90 LORA; for MIC90 LORA/MABA: ratio of LORA MIC90 to MABA MIC90
[2] = test system: M. tuberculosis transformed with luxABCDE; assay: microbe, parasite or virus in culture; type: cell-based, Mycobacterium tuberculosis
[3] = Mycobacterium tuberculosis, 168 h, […], ≥99% reduction in luminescence, read-out: MBC99 Day 7 (Lux Assay) MBC

| Structure (SMILES) | MIC90 LORA Rel to RMP [1] | MIC90 [1] [µM] | MIC90 LORA/MABA [1] | MBC99 Day 7 (Lux Assay) MBC Rel to RMP [2] | MBC [2, 3] [µM] | MIC90 LORA Rel to RMP ([1]; LORA MIC90 relative to rifampin (RMP = 1)) | MIC90 ([2]; Mycobacterium tuberculosis, 168 h, day 7 of time-kill study) [µM] | MBC ([2]; Mycobacterium tuberculosis, 168 h, day 7 of time-kill study, read-out: MBC99) [µM] |
| --- | --- | --- | --- | --- | --- | --- | --- | --- |
| CO[C@H]1/C=C/O[C@@]2(C)Oc3c(C)c(O)c4c(=O)c(c5oc6cc(N7CCCC(C(=O)Nc8ccc(Cl)cc8)C7)cc(C)c6nc-5c4c3C2=O)NC(=O)/C(C)=C\C=C\[C@H](C)[C@H](O)[C@@H](C)[C@@H](O)[C@@H](C)[C@H](OC(C)=O)[C@@H]1C (stereo partly drawn) [Compound 28, (7S,9E,11S,12R,13S,14R,15R,16R,17S,1S,19E,21Z)-30-{3-[(4-Chlorophenyl)carbamoyl]piperidin-1-yl}-2,15,17-trihydroxy-11-methoxy-3,7,12,14,16,18,22,32-octamethyl-6,23,37-trioxo-8,27,38-trioxa-24,34-diazahexacyclo[23.11.1.1^4,7.0^5,36.0^26,35.0^28,33]octatriaconta-1(36)2,4,9,19,21,25,28,30,32,34-undecaen-13-yl acetate] | 0.04 | 0.0092 | 2.1 | 0.05 | 0.025 | – | – | – |
| CO[C@H]1/C=C/O[C@@]2(C)Oc3c(C)c(O)c4c(=O)c(c5oc6cc(N7CCN(C(=O)c8cccc(-c9ccccn9)c8)CC7)cc(C)c6nc-5c4c3C2=O)NC(=O)/C(C)=C\C=C\[C@H](C)[C@H](O)[C@@H](C)[C@@H](O)[C@@H](C)[C@H](OC(C)=O)[C@@H]1C [Compound 29b, (7S,9E,11S,12R,13S,14R,15R,16R,17S,18S,19E,21Z)-2,15,17-Trihydroxy-11-methoxy-3,7,12,14,16,18,22,32-octamethyl-6,23,37-trioxo-30-(4-[3-(pyridin-2-yl)benzoyl]piperazin-1-yl)-8,27,38-trioxa-24,34-diazahexacyclo-[23.11.1.1^4,7.0^5,36.0^26,35.0^28,33]octatriaconta-1(36)2,4,9,19,21,25,28,30,32,34-undecaen-13-yl acetate] | 0.03 | 0.006 | 0.7 | 0.11 | 0.05 | – | – | – |
| CO[C@H]1/C=C/O[C@@]2(C)Oc3c(C)c(O)c4c(=O)c(c5oc6cc(N7CCN(C(=O)c8ccc9occc9c8)CC7)cc(C)c6nc-5c4c3C2=O)NC(=O)/C(C)=C\C=C\[C@H](C)[C@H](O)[C@@H](C)[C@@H](O)[C@@H](C)[C@H](OC(C)=O)[C@@H]1C [Compound 29c, (7S,9E,11S,12R,13S,14R,15R,16R,17S,18S,19E,21Z)-30-[4-(1-Benzofuran-5-carbonyl)piperazin-1-yl]-2,15,17-trihydroxy-11-methoxy-3,7,12,14,16,18,22,32-octamethyl-6,23,37-trioxo-8,27,38-trioxa-24,34-diazahexacyclo[23.11.1.1^4,7.0^5,36.0^26,35.0^28,33]octatriaconta-(36)2,4,9,19,21,25,28,30,32,34-undecaen-13-yl acetate] | 0.05 | 0.0096 | 2.0 | 0.10 | 0.048 | – | – | – |
| CO[C@H]1/C=C/O[C@@]2(C)Oc3c(C)c(O)c4c(=O)c(c5oc6cc(N7CCN(CCCCCCO[C@@H]8COc9nc([N+](=O)[O-])cn9C8)CC7)cc(C)c6nc-5c4c3C2=O)NC(=O)/C(C)=C\C=C\[C@H](C)[C@H](O)[C@@H](C)[C@@H](O)[C@@H](C)[C@H](OC(C)=O)[C@@H]1C [Compound 29e, (7S,9E,11S,12R,13S,14R,15R,16R,17S,18S,19E,21Z)-2,15,17-Trihydroxy-11-methoxy-3,7,12,14,16,18,22,32-octamethyl-30-[4-(6-{[(6S)-2-nitro-5H,6H,7H-imidazo[2,1-b][1,3]oxazin-6-yl]oxy}hexyl)piperazin-1-yl]-6,23,37-trioxo-8,27,38-trioxa-24,34-diazahexacyclo[23.11.1.1^4,7.0^5,36.0^26,35.0^28,33]octatriaconta-1(36)2,4,9,19,21,25,28,30,32,34-undecaen-13-yl acetate] | 0.03 | 0.008 | 4.0 | 0.11 | 0.05 | – | – | – |
| CO[C@H]1/C=C/O[C@@]2(C)Oc3c(C)c(O)c4c(=O)c(c5oc6cc(N7CCC(C(=O)O)CC7)cc(C)c6nc-5c4c3C2=O)NC(=O)/C(C)=C\C=C\[C@H](C)[C@H](O)[C@@H](C)[C@@H](O)[C@@H](C)[C@H](OC(C)=O)[C@@H]1C [Compound 29f, 1-[(7S,9E,11S,12R,13S,14R,15R,16R,17S,18S,19E,21Z)-13-(acetyloxy)-2,15,17-trihydroxy-11-methoxy-3,7,12,14,16,18,22,32-octamethyl-6,23,37-trioxo-8,27,38-trioxa-24,34-diazahexacyclo-[23.11.1.1^4,7.0^5,36.0^26,35.0^28,33]octatriaconta-1,3,5(36)9,19,21,25,28,30,32,34-undecaen-30-yl]piperidine-4-carboxylic acid] | 40 | 1.07 (≈ 0.987 µg/mL) | 4.5 | – | > 0.1 | – | – | – |
| CO[C@H]1/C=C/O[C@@]2(C)Oc3c(C)c(O)c4c(=O)c(c5oc6cc(N7CCC(CC(=O)O)CC7)cc(C)c6nc-5c4c3C2=O)NC(=O)/C(C)=C\C=C\[C@H](C)[C@H](O)[C@@H](C)[C@@H](O)[C@@H](C)[C@H](OC(C)=O)[C@@H]1C [Compound 29g, 2-{4-[(7S,9E,11S,12R,13S,14R,15R,16R,17S,18S,19E,21Z)-13-(acetyloxy)-2,15,17-trihydroxy-11-methoxy-3,7,12,14,16,18,22,32-octamethyl-6,23,37-trioxo-8,27,38-trioxa-24,34-diazahexacyclo[23.11.1.1^4,7.0^5,36.0^26,35.0^28,33]octatriaconta-1,3,5(36)9,19,21,25,28,30,32,34-undecaen-30-yl]piperidin-4-yl}acetic acid] | 10 | 0.28 (≈ 0.263 µg/mL) | 5.4 | – | > 0.1 | – | – | – |
| CO[C@H]1/C=C/O[C@@]2(C)Oc3c(C)c(O)c4c(=O)c(c5oc6cc(N7CCN(CC(=O)O)CC7)cc(C)c6nc-5c4c3C2=O)NC(=O)/C(C)=C\C=C\[C@H](C)[C@H](O)[C@@H](C)[C@@H](O)[C@@H](C)[C@H](OC(C)=O)[C@@H]1C [Compound 29h, 2-{4-[(7S,9E,11S,12R,13S,14R,15R,16R,17S,18S,19E,21Z)-13-(acetyloxy)-2,15,17-trihydroxy-11-methoxy-3,7,12,14,16,18,22,32-octamethyl-6,23,37-trioxo-8,27,38-trioxa-24,34-diazahexacyclo[23.11.1.1^4,7.0^5,36.0^26,35.0^28,33]octatriaconta-1,3,5(36)9,19,21,25,28,30,32,34-undecaen-30-yl]piperazin-1-yl}acetic acid] | 5.0 | 0.133 (≈ 0.125 µg/mL) | 7.2 | – | > 0.1 | – | – | – |
| CO[C@H]1/C=C/O[C@@]2(C)Oc3c(C)c(O)c4c(=O)c(c5oc6cc(C)cc(N7CCN(CCn8ccnc8)CC7)c6nc-5c4c3C2=O)NC(=O)/C(C)=C\C=C\[C@H](C)[C@H](O)[C@@H](C)[C@@H](O)[C@@H](C)[C@H](OC(C)=O)[C@@H]1C [Compound 30e, (7S,9E,11S,12R,13S,14R,15R,16R,17S,18S,19E,21Z)-2,15,17-Trihydroxy-32-{4-[3-(1H-imidazol-1-yl)ethyl]piperazin-1-yl}-11-methoxy-3,7,12,14,16,18,22,30-octamethyl-6,23,37-trioxo-8,27,38-trioxa-24,34-diazahexacyclo[23.11.1.1^4,7.0^5,36.0^26,35.0^28,33]octatriaconta-1(36)2,4,9,19,21,25,28,30,32,34-undecaen-13-yl acetate] | 0.87 | 0.18 | 2.1 | 1.06 | 0.49 | – | – | – |
| CO[C@H]1/C=C/O[C@@]2(C)Oc3c(C)c(O)c4c(=O)c(c5oc6cc(C)cc(N7CCN(C(=O)c8cccc(-n9ccnc9)c8)CC7)c6nc-5c4c3C2=O)NC(=O)/C(C)=C\C=C\[C@H](C)[C@H](O)[C@@H](C)[C@@H](O)[C@@H](C)[C@H](OC(C)=O)[C@@H]1C [Compound 30f, (7S,9E,11S,12R,13S,14R,15R,16R,17S,18S,19E,21Z)-2,15,17-Trihydroxy-32-{4-[3-(1H-imidazol-1-yl)benzoyl]piperazin-1-yl}-11-methoxy-3,7,12,14,16,18,22,30-octamethyl-6,23,37-trioxo-8,27,38-trioxa-24,34-diazahexacyclo[23.11.1.1^4,7.0^5,36.0^26,35.0^28,33]octatriaconta-1(36)2,4,9,19,21,25,28,30,32,34-undecaen-13-yl acetate] | 0.57 | 0.117 | 2.7 | 0.24 | 0.11 | – | – | – |
| CO[C@H]1/C=C/O[C@@]2(C)Oc3c(C)c(O)c4c(c3C2=O)C2=NC3(CCN(CC(C)C)CC3)NC2=C(NC(=O)/C(C)=C\C=C\[C@H](C)[C@H](O)[C@@H](C)[C@@H](O)[C@@H](C)[C@H](OC(C)=O)[C@@H]1C)C4=O [RFB, rifabutin, reference compound] | 0.01 | 0.0023 (≈ 0.00195 µg/mL) | 0.94 | 0.02 | 0.01 (≈ 0.00847 µg/mL) | – | – | – |
| CO[C@H]1/C=C/O[C@@]2(C)Oc3c(C)c(O)c4c(=O)c(c5oc6cc(N7CCN(CC(C)C)CC7)cc(O)c6nc-5c4c3C2=O)NC(=O)/C(C)=C\C=C\[C@H](C)[C@H](O)[C@@H](C)[C@@H](O)[C@@H](C)[C@H](OC(C)=O)[C@@H]1C [RLZ, rifalazil, reference compound] | 0.01 | 0.0022 (≈ 0.00207 µg/mL) | 2.0 | 0.07 | 0.03 (≈ 0.0282 µg/mL) | – | – | – |
| CO[C@H]1/C=C/O[C@@]2(C)Oc3c(C)c(O)c4c(O)c(c(/C=N/N5CCN(C)CC5)c(O)c4c3C2=O)NC(=O)/C(C)=C\C=C\[C@H](C)[C@H](O)[C@@H](C)[C@@H](O)[C@@H](C)[C@H](OC(C)=O)[C@@H]1C [RMP, rifampin, reference compound] | – | 0.206 (≈ 0.17 µg/mL) | 7.6 | 1 | 0.463 (≈ 0.381 µg/mL) | 1 | 0.03 (≈ 0.0247 µg/mL) | 0.463 (≈ 0.381 µg/mL) |
